One series concerns EAE in NOD mice. The experiment in a line: Standard EAE clinical score (0-5 scale), MOG-induced EAE, NOD mice. The format is in vivo, mouse. As to conditions: NOD females; DPN in miglyol vehicle; vs vehicle. From the text: (§1) Animals. C57BL/6 and NOD mice 8 weeks old were purchased from Jackson Laboratories (Bar Harbor, Me.). Animals were maintained under environmentally controlled conditions in a 12-hour light/dark cycle with access to food and water ad libitum. All procedures were done in accordance with the guidelines of the National Institutes of Health and the Chancellor's Animal Research Committee of the University of California, Los Angeles Office for the Protection of Research Subjects.
(§2) Reagents. AC-186 was dissolved in either Miglyol 812N liquid oil (Sasol North America) or sesame oil (Sigma Aldrich) as following concentration; 1.5 mg/mL for 3 mg/kg group, 5 mg/mL for 10 mg/kg group, and 15 mg/mL for 30 mg/kg group. Diarylpropionitrile (DPN, Tocris Biosciences) was dissolved in 10% molecular-grade ethanol and diluted with 90% of either Miglyol 812N liquid oil or sesame oil.
(§3) EAE and Treatments. Animals were injected subcutaneously with Myelin Oligodendrocyte Glycoprotein (MOG), amino acids 35-55 (200 μg/animal, American Peptides), emulsified in complete Freund's adjuvant (CFA) and supplemented with Mycobacterium tuberculosis H37ra (300 μg/animal, Difco Laboratories), over two sites drained by left inguinal and auxiliary lymph nodes in a total volume of 0.1 ml/mouse. One week later, a booster immunization was delivered over contra lateral lymph nodes. Pertussis toxin (500 ng/mouse) (List Biological Laboratories, Inc.) was injected intraperitoneally on days 0 and 2. Animals were monitored daily for EAE signs based on a standard EAE 0-5 scale scoring system: 0—healthy, 1—complete loss of tail tonicity, 2—loss of righting reflex, 3—partial paralysis, 4—complete paralysis of one or both hind limbs, and 5—moribund. Animals received 0.05 ml of either of 1.5, 5, 15 mg/mL AC-186, vehicle (sesame oil or Miglyol 812N liquid oil), or DPN (8 mg/kg/day) via subcutaneous injections every other day. Animals were treated with AC-186 or vehicle after EAE induction. Specifically, treatment was initiated at the first clear signs of clinical disease (EAE day 13-15), and continued to the endpoint of the experiment.

Series [1] deals with EAE in C57BL/6 mice. As to conditions: DPN in Miglyol carrier; previous work; cited from earlier work.
The nature of series [2]: Dissolution of the compound in the oil vehicle. The series is classed as physicochemical. As to conditions: DPN; needed ethanol first. The protocol: as §2
Three doses of the AC-186 compound were tested in C57BL6 female mice: low (3 mg/kg, every other day), medium (10 mg/kg, every other day), and high (30 mg/kg, every other day), each injected subcutaneously in a sesame oil vehicle. The ERβ ligand diarylpropionitrile (DPN) was tested as a positive control because DPN can partially ameliorate EAE and because the treatment effects in EAE experiments can vary based on the level of disease severity within an experiment. Direct comparisons between treatments were only made between treatment groups within a single EAE experiment and not between treatment groups of different EAE experiments. […] The difference in improvement between the 30 mg/kg AC-186 group and all other groups increased with time.

For series [3], the system named is EAE in C57BL/6 mice. The experiment in a line: Standard EAE clinical score (0-5 scale), MOG 35-55 induced EAE, C57BL/6 mice. The format is in vivo, mouse.
Text: as §1, §2, §3

The subject of series [4] is spinal cords of C57BL/6 females with EAE. As to conditions: DPN; previous experiments; cited from earlier work.
Series [5] relates to EAE in C57BL/6 mice. Nature of the series: Rotarod testing of motor coordination and balance in EAE, C57BL/6 mice. The format is in vivo, mouse. As to conditions: DPN in 10% ethanol/miglyol vs miglyol vehicle (FIG. 4; strain not given). The protocol: Rotarod Testing. Motor behavior was tested up to two times per week for each mouse using a rotarod apparatus (Med Associates Inc., St. Albans, Vt.). Briefly, animals were placed on a rotating horizontal cylinder for a maximum of 200 seconds. The amount of time the mouse remained walking on the cylinder, without falling, was recorded. Each mouse was tested on a speed of 3-30 rpm and given three trials for any given day. The three trials were averaged to report a single value for an individual mouse, and then averages were calculated for all animals within a given treatment group. The first two trial days prior to immunization (day 0), served as practice trials.
Background: In the rotarod test animals must keep their balance on a rotating rod.

Series [6] has as its system healthy female C57BL/6 mice (no EAE induced). Nature of the series: Morris water maze (spatial memory) in ovariectomized mice. The series is classed as in vivo, mouse. As to conditions: for Morris water maze learning (time in target quadrant): ovariectomized, estriol-treated mice (OVX-Estriol) vs OVX-Placebo. How it is done: FIG. 25. Peripheral estrogens improve performance on the Morris water maze via ERβ expressed on neurons. Healthy female C57BL/6 (with no EAE induced) were tested for cognitive performance (spatial memory) using the Morris water maze, whereby mice learn to spend more time in a target quadrant (TQ) as compared to three other quadrants (OQ). […] (Bottom graph) To determine (a) whether ER beta is required for proper learning and, more specifically, (b) whether ER beta expression in neurons is required for learning, mice were generated that had ER beta conditionally knocked out using CreLox technology, with Cre driving the knock out in neurons via the neuron-specific enolase (NSE) promoter. […] (***p≤0.001, ANOVA-Sidak's posttest). […] The dashed line on the graphs indicates the time expected to be spent in a quadrant by random chance in the absence of learning (25%).

“Also recorded” adds a separate entry of the source.

Turning to `N#CC(Cc1ccc(O)cc1)c1ccc(O)cc1` (centres unmarked) [DPN, Diarylpropionitrile, reference compound], the EAE score entry is recorded as “significantly ameliorated EAE; also recorded: better EAE scores” with EAE in NOD mice; “protects against EAE better; also recorded: better EAE scores” in the series with EAE in C57BL/6 mice [3] (DPN in 10% ethanol/miglyol vs miglyol vehicle (FIG. 4; strain not given)); “not effective” in the series on EAE in C57BL/6 mice [3] (female C57BL/6, DPN in 10% ethanol in sesame oil). Also, the EAE amelioration result with EAE in C57BL/6 mice [1] was “ameliorated EAE”. Also, the “Dissolution in sesame oil” value in series [2] is “difficult to dissolve in sesame oil”. Besides, the “CD45 staining in the CNS” value in series [4] is listed as “no significant effect on CD45 staining; also recorded: no effect on CD45 or Iba-1 globoid cell staining”. Also, in series [4], the “Iba-1 globoid cell staining” value is on record as “no effect on CD45 or Iba-1 globoid cell staining”. Also, the Rotarod times result with EAE in C57BL/6 mice [5] is reported as “better performance with the rotarod test”.

Turning to `C[C@]12CC[C@@H]3c4ccc(O)cc4CC[C@H]3[C@@H]1C[C@@H](O)[C@@H]2O` [estriol], in series [6] (OVX-Estriol NSE-Cre:ERβ fl/fl mice (neuronal ER beta knockout), listed as Estriol), the “Morris water maze learning (% duration in target quadrant)” value is given as “estrogen-mediated improvement is lost”. Besides, the results for the “Morris water maze learning (time in target quadrant)” value in series [6] and in series [6] (listed as Estriol) were “ability to learn may be restored” and “improves performance”, respectively.

The record behind these values is US11628146B2, “Estrogen receptor ligand treatment for neurodegenerative diseases” (The Regents of the University of California, priority 2014, dated 2023).
